The source of these data is ChEMBL document CHEMBL4390683, “Design, synthesis, and evaluation of α-galactopyranosylceramide mimics promoting Th2 cytokines production” (2019).

Type in all cases: functional
Assay [1] relates to Mus musculus. The assay can be described thus: Ratio of induction activity for IL-4 production in C57BL/6 mouse at 100 ug/kg, ip after 48 hrs by peak value method to induction activity for IFN-gamma production in C57BL/6 mouse at 100 ug/kg, ip after 48 hrs by peak value method.
For assay [2], the system named is Mus musculus. Put plainly: Induction of serum IFNgamma production in C57BL/6 mouse assessed as serum IFNgamma level at 100 ug/kg, ip and measured for 48 hrs by AUC method.
The test system of assay [3] is Mus musculus. The assay can be described thus: Induction of serum IL-4 production in C57BL/6 mouse at 100 ug/kg, ip and measured for 48 hrs by AUC method relative to KRN7000.
For assay [4], the system named is Mus musculus. Put plainly: Induction of serum IL-4 production in C57BL/6 mouse assessed as serum IL-4 level at 100 ug/kg, ip and measured for 48 hrs by peak value method relative to KRN7000.
For assay [5], the system named is Mus musculus. Put plainly: Induction of serum IFNgamma production in C57BL/6 mouse assessed as serum IFNgamma level at 100 ug/kg, ip and measured for 48 hrs by peak value method.
For assay [6], the system named is Mus musculus. The assay can be described thus: Induction of serum IFNgamma production in C57BL/6 mouse at 100 ug/kg, ip and measured for 48 hrs by AUC method relative to KRN7000.
The subject of assay [7] is Mus musculus. The assay can be described thus: Induction of serum IFNgamma production in C57BL/6 mouse assessed as serum IFNgamma level at 100 ug/kg, ip and measured for 48 hrs by peak value method relative to KRN7000.
Assay [8] deals with Mus musculus. The assay can be described thus: Ratio of induction activity for IL-4 production in C57BL/6 mouse at 100 ug/kg, ip after 48 hrs by AUC method to induction activity for IFN-gamma production in C57BL/6 mouse at 100 ug/kg, ip after 48 hrs by AUC method.
The test system of assay [9] is Mus musculus. Put plainly: Induction of serum IL-4 production in C57BL/6 mouse assessed as serum IL-4 level at 100 ug/kg, ip and measured for 48 hrs by AUC method.
In assay [10] the test system is Mus musculus. The assay can be described thus: Induction of serum IL-4 production in C57BL/6 mouse assessed as serum IL-4 level at 100 ug/kg, ip and measured for 48 hrs by peak value method. Also noted: unit not given here.

Consider `CCCCCCCCCCCCCCCCCCCCCCCC(=O)N[C@@H](CO[C@H]1O[C@H](CO)[C@H](O)[C@H](O)[C@H]1O)[C@H](O)[C@H](O)CCCCC`, for which the Ratio in the assay on Mus musculus [1] was determined as 4.85; in the assay with Mus musculus [8], 6.45. In the assay with Mus musculus [2], the AUC was found to be 6780 pg·h/mL. Further, the Activity came out at 251% in the assay with Mus musculus [3]; 244% in the assay on Mus musculus [4]; 336 pg/mL with Mus musculus [5]; 39% with Mus musculus [6]; 50% in the assay with Mus musculus [7].

For the compound `CCCCCCCCCCCCCCCCCCCCCCCC(=O)N[C@@H](CO[C@H]1O[C@H](CNC(=O)[C@@H](N)CCC(=O)O)[C@H](O)[C@H](O)[C@H]1O)[C@H](O)[C@H](O)CCCCC`, the Activity turned out to be 2043.36 pg·h/mL in the assay on Mus musculus [9]; 303.26 in the assay on Mus musculus [10]; 153% with Mus musculus [3]; 108% in the assay with Mus musculus [4]; 241 pg/mL in the assay with Mus musculus [5]; 20% in the assay with Mus musculus [6]. Further, in the assay on Mus musculus [7], the Activity is 36%. In addition, the Ratio in the assay with Mus musculus [1] worked out at 2.99; in the assay with Mus musculus [8], 7.59. Besides, the AUC in the assay on Mus musculus [2] came to 3520 pg·h/mL.

Take `CCCCCCCCCCCCCCCCCCCCCCCC(=O)N[C@@H](CO[C@H]1O[C@H](CNC(=O)CCc2ccc(O)cc2)[C@H](O)[C@H](O)[C@H]1O)[C@H](O)[C@H](O)CCCCC`: the Activity amounted to 3120.95 pg·h/mL in the assay with Mus musculus [9]; 657.75 in the assay with Mus musculus [10]; 234% with Mus musculus [3]; 235% in the assay on Mus musculus [4]; 169 pg/mL with Mus musculus [5]; 25% with Mus musculus [6]. The Activity in the assay with Mus musculus [7] turned out to be 25%. Besides, the Ratio stood at 9.28 in the assay with Mus musculus [1] and 9.3 in the assay on Mus musculus [8]. Moreover, the AUC in the assay on Mus musculus [2] was 4380 pg·h/mL.

Turning to `CCCCCCCCCCCCCCCCCCCCCCCCCC(=O)N[C@@H](CO[C@H]1O[C@H](CO)[C@H](O)[C@H](O)[C@H]1O)[C@H](O)[C@H](O)CCCCCCCCCCCCCC` [RGI-7000], the Activity in the assay on Mus musculus [9] is 1331 pg·h/mL; in the assay with Mus musculus [10] it was 280; in the assay with Mus musculus [5], 666 pg/mL. For the same compound, the Ratio in the assay on Mus musculus [1] and with Mus musculus [8] was 1 in each case. The AUC in the assay on Mus musculus [2] was 17400 pg·h/mL.
